Measurements: PubChem BioAssay (NCI)
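These data come from cells grown in 96-well plates and exposed to compound for 48 hours at five concentrations. At the GI50, growth is halved. Definition used: TGI = concentration required for complete inhibition of growth.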

Key:
Test in all cases: NCI anticancer screen, dose series, 48 h
SK-MEL-28 melanoma = system: SK-MEL-28 melanoma
A549 NSCLC = system: A549 NSCLC
A498 renal = system: A498 renal
NCI/ADR-RES ovarian = system: NCI/ADR-RES ovarian
SW-620 colon = system: SW-620 colon
MDA-MB-435 = system: MDA-MB-435
HOP-62 NSCLC = system: HOP-62 NSCLC
HCT-15 colon = system: HCT-15 colon
MCF7 breast = system: MCF7 breast
MDA-MB-231 breast = system: MDA-MB-231 breast
COLO 205 colon = system: COLO 205 colon
SK-MEL-5 melanoma = system: SK-MEL-5 melanoma
LOX IMVI melanoma = system: LOX IMVI melanoma
OVCAR-3 ovarian = system: OVCAR-3 ovarian
NCI-H460 lung = system: NCI-H460 lung
HCT-116 colon = system: HCT-116 colon
MOLT-4 leukemia = system: MOLT-4 leukemia
SF-295 CNS = system: SF-295 CNS
CAKI-1 renal = system: CAKI-1 renal
EKVX NSCLC = system: EKVX NSCLC
786-0 renal = system: 786-0 renal
IGROV1 ovarian = system: IGROV1 ovarian
SF-539 CNS = system: SF-539 CNS
HL-60(TB) leukemia = system: HL-60(TB) leukemia
OVCAR-5 ovarian = system: OVCAR-5 ovarian
OVCAR-4 ovarian = system: OVCAR-4 ovarian
NCI-H23 lung = system: NCI-H23 lung
K-562 leukemia = system: K-562 leukemia
HOP-92 NSCLC = system: HOP-92 NSCLC
MALME-3M melanoma = system: MALME-3M melanoma
OVCAR-8 ovarian = system: OVCAR-8 ovarian
SK-MEL-2 melanoma = system: SK-MEL-2 melanoma
PC-3 prostate = system: PC-3 prostate
RXF 393 renal = system: RXF 393 renal
DU-145 prostate = system: DU-145 prostate
UACC-62 melanoma = system: UACC-62 melanoma
HS 578T breast = system: HS 578T breast
NCI-H226 lung = system: NCI-H226 lung
CCRF-CEM leukemia = system: CCRF-CEM leukemia
SF-268 CNS = system: SF-268 CNS
BT-549 breast = system: BT-549 breast
TK-10 renal = system: TK-10 renal
UACC-257 melanoma = system: UACC-257 melanoma
U251 CNS = system: U251 CNS
KM12 colon = system: KM12 colon
SR leukemia = system: SR leukemia
SN12C renal = system: SN12C renal
SK-OV-3 ovarian = system: SK-OV-3 ovarian
HT29 colon = system: HT29 colon
UO-31 renal = system: UO-31 renal
ACHN renal = system: ACHN renal
M14 melanoma = system: M14 melanoma
SNB-19 CNS = system: SNB-19 CNS
RPMI-8226 leukemia = system: RPMI-8226 leukemia
HCC-2998 colon = system: HCC-2998 colon
NCI-H522 lung = system: NCI-H522 lung
T-47D breast = system: T-47D breast

## Clc1ccc(/C=c2\nc(-c3ccccc3)n3c2nc2ccccc23)cc1
SK-MEL-28 melanoma
  TGI: 0.952 µM
A549 NSCLC
  TGI: > 100 µM
A498 renal
  TGI: > 100 µM
NCI/ADR-RES ovarian
  TGI: > 100 µM
SW-620 colon
  TGI: > 100 µM
MDA-MB-435
  TGI: > 100 µM
HOP-62 NSCLC
  TGI: > 100 µM
HCT-15 colon
  TGI: > 100 µM
MCF7 breast
  TGI: > 100 µM
MDA-MB-231 breast
  TGI: > 100 µM
COLO 205 colon
  TGI: > 100 µM
SK-MEL-5 melanoma
  TGI: > 100 µM
LOX IMVI melanoma
  TGI: > 100 µM
OVCAR-3 ovarian
  TGI: > 100 µM
NCI-H460 lung
  TGI: > 100 µM
HCT-116 colon
  TGI: > 100 µM
MOLT-4 leukemia
  TGI: > 100 µM
SF-295 CNS
  TGI: > 100 µM
CAKI-1 renal
  TGI: > 100 µM
EKVX NSCLC
  TGI: 71.4 µM
786-0 renal
  TGI: > 100 µM
IGROV1 ovarian
  TGI: > 100 µM
SF-539 CNS
  TGI: 52.2 µM
HL-60(TB) leukemia
  TGI: > 100 µM
OVCAR-5 ovarian
  TGI: > 100 µM
OVCAR-4 ovarian
  TGI: > 100 µM
NCI-H23 lung
  TGI: > 100 µM
K-562 leukemia
  TGI: > 100 µM
HOP-92 NSCLC
  TGI: > 100 µM
MALME-3M melanoma
  TGI: > 100 µM
OVCAR-8 ovarian
  TGI: > 100 µM
SK-MEL-2 melanoma
  TGI: > 100 µM
PC-3 prostate
  TGI: 87.8 µM
RXF 393 renal
  TGI: > 100 µM
DU-145 prostate
  TGI: > 100 µM
UACC-62 melanoma
  TGI: > 100 µM
HS 578T breast
  TGI: > 100 µM
NCI-H226 lung
  TGI: > 100 µM
CCRF-CEM leukemia
  TGI: > 100 µM
SF-268 CNS
  TGI: > 100 µM
BT-549 breast
  TGI: > 100 µM
TK-10 renal
  TGI: > 100 µM
UACC-257 melanoma
  TGI: > 100 µM
U251 CNS
  TGI: > 100 µM
KM12 colon
  TGI: > 100 µM
SR leukemia
  TGI: > 100 µM
SN12C renal
  TGI: > 100 µM
SK-OV-3 ovarian
  TGI: > 100 µM
HT29 colon
  TGI: > 100 µM
UO-31 renal
  TGI: > 100 µM
ACHN renal
  TGI: 50.6 µM
M14 melanoma
  TGI: > 100 µM
SNB-19 CNS
  TGI: > 100 µM
RPMI-8226 leukemia
  TGI: > 100 µM

## COc1ccc(-c2cnc(SCC(=O)c3c(C)n(C)n(-c4ccccc4)c3=O)n2-c2ccc(OC)cc2)cc1
SK-MEL-28 melanoma
  GI50: > 50 µM
  TGI: > 50 µM
A549 NSCLC
  GI50: > 50 µM
  TGI: > 50 µM
NCI/ADR-RES ovarian
  GI50: > 50 µM
  TGI: > 50 µM
SW-620 colon
  GI50: > 50 µM
  TGI: > 50 µM
MDA-MB-435
  GI50: > 50 µM
  TGI: > 50 µM
HOP-62 NSCLC
  GI50: 28.9 µM
  TGI: > 50 µM
HCT-15 colon
  GI50: > 50 µM
  TGI: > 50 µM
MCF7 breast
  GI50: 35.3 µM
  TGI: > 50 µM
MDA-MB-231 breast
  GI50: > 50 µM
  TGI: > 50 µM
COLO 205 colon
  GI50: > 50 µM
  TGI: > 50 µM
SK-MEL-5 melanoma
  GI50: 22.3 µM
  TGI: > 50 µM
LOX IMVI melanoma
  GI50: 46.5 µM
  TGI: > 50 µM
OVCAR-3 ovarian
  GI50: > 50 µM
  TGI: > 50 µM
NCI-H460 lung
  GI50: 43.6 µM
  TGI: > 50 µM
HCT-116 colon
  GI50: 20.3 µM
  TGI: > 50 µM
MOLT-4 leukemia
  GI50: 12.6 µM
  TGI: > 50 µM
SF-295 CNS
  GI50: > 50 µM
  TGI: > 50 µM
CAKI-1 renal
  GI50: > 50 µM
  TGI: > 50 µM
EKVX NSCLC
  GI50: 29.7 µM
  TGI: > 50 µM
786-0 renal
  GI50: > 50 µM
  TGI: > 50 µM
IGROV1 ovarian
  GI50: > 50 µM
  TGI: > 50 µM
SF-539 CNS
  GI50: > 50 µM
  TGI: > 50 µM
HL-60(TB) leukemia
  GI50: 36.8 µM
  TGI: > 50 µM
OVCAR-5 ovarian
  GI50: > 50 µM
  TGI: > 50 µM
NCI-H23 lung
  GI50: > 50 µM
  TGI: > 50 µM
K-562 leukemia
  GI50: 33.2 µM
  TGI: > 50 µM
HOP-92 NSCLC
  GI50: > 50 µM
  TGI: > 50 µM
HCC-2998 colon
  GI50: 44.9 µM
  TGI: > 50 µM
OVCAR-8 ovarian
  GI50: > 50 µM
  TGI: > 50 µM
SK-MEL-2 melanoma
  GI50: > 50 µM
  TGI: > 50 µM
PC-3 prostate
  GI50: 40.1 µM
  TGI: > 50 µM
RXF 393 renal
  GI50: > 50 µM
  TGI: > 50 µM
DU-145 prostate
  GI50: 9.13 µM
  TGI: > 50 µM
UACC-62 melanoma
  GI50: > 50 µM
  TGI: > 50 µM
HS 578T breast
  GI50: 42.6 µM
  TGI: > 50 µM
NCI-H226 lung
  GI50: > 50 µM
  TGI: > 50 µM
NCI-H522 lung
  GI50: > 50 µM
  TGI: > 50 µM
SF-268 CNS
  GI50: > 50 µM
  TGI: > 50 µM
T-47D breast
  GI50: > 50 µM
  TGI: > 50 µM
TK-10 renal
  GI50: > 50 µM
  TGI: > 50 µM
UACC-257 melanoma
  GI50: > 50 µM
  TGI: > 50 µM
U251 CNS
  GI50: > 50 µM
  TGI: > 50 µM
KM12 colon
  GI50: > 50 µM
  TGI: > 50 µM
SN12C renal
  GI50: > 50 µM
  TGI: > 50 µM
HT29 colon
  GI50: > 50 µM
  TGI: > 50 µM
UO-31 renal
  GI50: > 50 µM
  TGI: > 50 µM
ACHN renal
  GI50: > 50 µM
  TGI: > 50 µM
M14 melanoma
  GI50: 35.2 µM
  TGI: > 50 µM
SNB-19 CNS
  GI50: > 50 µM
  TGI: > 50 µM
RPMI-8226 leukemia
  GI50: 6.87 µM
  TGI: > 50 µM
